Reference: patent US20120110703A1, “PROTEIN HAVING NOVEL PRENYLT[…] AND GENE ENCODING THE SAME” (KIRIN HOLDINGS KABUSHIKI KAISHA, priority 2009, published 2012)

Tests used:
[1] = biological target: T1, H1PT1 prenyltransferase (Humulus lupulus, UniProt A0A0B4ZTQ2); assay: Prenyltransferase activity of recombinant H1PT1 (yeast microsome fraction), LC-MS analysis of products; format: biochemical; conditions: for activity of transferring a prenyl group to substrate (substrate specificity): geranyl diphosphate as prenyl group donor, LCMS-IT-TOF, FIGS. 6 and 7
T1 construct: made in house; host or cells: Saccharomyces cerevisiae W303-1A-Δcoq2 (microsome fraction)
T1 sequence (A0A0B4ZTQ2 47-408): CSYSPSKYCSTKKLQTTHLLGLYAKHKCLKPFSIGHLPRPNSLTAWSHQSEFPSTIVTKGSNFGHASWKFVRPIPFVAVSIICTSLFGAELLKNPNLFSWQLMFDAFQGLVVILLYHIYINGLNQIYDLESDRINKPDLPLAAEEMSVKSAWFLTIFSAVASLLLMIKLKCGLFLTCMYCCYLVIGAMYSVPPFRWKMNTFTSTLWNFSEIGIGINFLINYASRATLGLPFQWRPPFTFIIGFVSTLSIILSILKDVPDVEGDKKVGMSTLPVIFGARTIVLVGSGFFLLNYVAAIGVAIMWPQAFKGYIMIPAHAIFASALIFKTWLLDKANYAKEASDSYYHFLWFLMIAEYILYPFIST
Procedure: (§1) The enzyme of the present invention (340 μg to 730 μg), a substrate aromatic compound (1 mM) such as flavonoid, a prenyl group donor (1 mM), and MgCl2 (20 mM) are mixed in a 100 mM Tris-HCl buffer (pH 7.5) to bring the amount of the resultant to 200 μl, and the reaction is allowed to proceed at 30° C. overnight. After the completion of the reaction, the product is extracted with ethyl acetate, dried, and dissolved in MeOH. The resultant may be analyzed using a mass spectrometer or via chromatography.
Cloned plasmids (pDR196-H1PT1 and pDR196-H1PT2) comprising each full-length sequence of the two gene clusters (H1PT1 and H1PT2) were introduced into the yeast strain (W303-1A-Δcoq2) by the lithium acetate method. Culture was conducted in 180 ml of SD-Ura liquid medium up to the logarithmic growth phase to express recombinant proteins in yeast transformants, and microsome fractions were prepared therefrom using the method of Yazaki et al. (JBC, 2002, 277, 6240-6246). The total amount of the reaction solution was adjusted to 200 μl by mixing 340 μg to 730 μg of proteins from the microsome fractions, flavonoid (1 mM), a prenyl group donor (1 mM), 20 mM MgCl2, and 100 mM Tris-HCl buffer (pH 7.5), and the reaction was allowed to proceed at 30° C. overnight. After the completion of the reaction, the product was extracted with ethyl acetate, dried, and dissolved in methanol (MeOH). The resultant was analyzed using Shimadzu LCMS-2010A and LCMS-IT-TOF (Shimadzu Corporation), TSK-GEL ODS-80Ts 2.0 mm×25 cm (TOSOH), and a solvent system (0.3% formic acid:acetonitrile=3:7) at a flow rate of 0.2 ml/min−1. […] These compounds had not been prepared via the heterologous expression system with the use of a plant-derived gene in the past. 6-Geranylnaringenin (peak c in FIG. 4) was compared with a standard sample (provided by Associate professor Tomohisa Kuzuyama, the University of Tokyo), and the same retention time and identical fragments were observed (FIG. 5). Thus, novel prenyltransferase (i.e., H1PT1 full-length: 1,224 bp, ORF: […].; H1PT2 full-length: 1,233 bp, ORF: 411 a.a.) was obtained. The amino acid sequences of proteins encoded by H1PT1 and H1PT2 are shown in SEQ ID NOs: 1 and 2, respectively. The nucleotide sequences of H1PT1 and H1PT2 are shown in SEQ ID NOs: 3 and 4, respectively. […] Thus, H1PT1 was mainly subjected to analysis as described below; however, it was also possible to analyze H1PT2 in the same manner.
The Sophora flavescens gene (JP Patent Publication (Kokai) No. 2008-220304 A) and the soybean gene (Akashi et al., Plant Physiology 149: 683-693, 2009), which are already known, are known to encode enzymes that interact with limited substrates with very high specificity. The enzymatic properties of recombinant H1PT1 were analyzed using LCMS-IT-TOF. Geranyl diphosphate was used as a prenyl group donor for prenylation of various flavonoid-associated compounds (e.g., isoliquiritigenin, sakuranetin, taxifolin, or genistein).

[2] = biological target: T2, H1PT2 prenyltransferase (Humulus lupulus, UniProt E5RP65); assay: Prenyltransferase activity of recombinant H1PT2 (yeast microsome fraction), LC-MS analysis of products; format: biochemical; conditions: flavonoid 1 mM, geranyl diphosphate 1 mM as prenyl group donor, 20 mM MgCl2, pH 7.5, 30° C. overnight; FIG. 4
T2 construct: made in house; host or cells: Saccharomyces cerevisiae W303-1A-Δcoq2 (microsome fraction)
T2 sequence (E5RP65 92-411): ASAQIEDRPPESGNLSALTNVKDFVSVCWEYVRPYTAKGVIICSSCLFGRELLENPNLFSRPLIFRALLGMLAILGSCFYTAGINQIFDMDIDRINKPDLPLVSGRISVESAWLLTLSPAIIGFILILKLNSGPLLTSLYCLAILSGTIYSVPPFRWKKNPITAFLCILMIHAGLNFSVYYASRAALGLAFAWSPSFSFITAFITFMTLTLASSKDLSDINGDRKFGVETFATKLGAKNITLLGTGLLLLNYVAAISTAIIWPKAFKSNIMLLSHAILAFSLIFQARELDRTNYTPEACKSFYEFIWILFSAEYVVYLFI
Procedure: as §1
Cloned plasmids (pDR196-H1PT1 and pDR196-H1PT2) comprising each full-length sequence of the two gene clusters (H1PT1 and H1PT2) were introduced into the yeast strain (W303-1A-Δcoq2) by the lithium acetate method. Culture was conducted in 180 ml of SD-Ura liquid medium up to the logarithmic growth phase to express recombinant proteins in yeast transformants, and microsome fractions were prepared therefrom using the method of Yazaki et al. (JBC, 2002, 277, 6240-6246). […] The resultant was analyzed using Shimadzu LCMS-2010A and LCMS-IT-TOF (Shimadzu Corporation), TSK-GEL ODS-80Ts 2.0 mm×25 cm (TOSOH), and a solvent system (0.3% formic acid:acetonitrile=3:7) at a flow rate of 0.2 ml/min−1. […]

| SMILES | activity of transferring a prenyl group to substrate (substrate specificity) [1] | prenylated products from substrate [2] | prenylated products from substrate ([1]; flavonoid 1 mM, geranyl diphosphate 1 mM as prenyl group donor, 20 mM MgCl2, pH 7.5, 30° C. overnight, FIG. 4) |
| --- | --- | --- | --- |
| O=c1c(-c2ccc(O)cc2)coc2cc(O)cc(O)c12 [genistein] | activity of transferring a prenyl group to all substrates was observed | – | – |
| O=C(/C=C/c1ccc(O)cc1)c1ccc(O)cc1O [isoliquiritigenin] | activity of transferring a prenyl group to all substrates was observed | – | – |
| O=C1C[C@@H](c2ccc(O)cc2)Oc2cc(O)cc(O)c21 [naringenin] | – | a compound into which prenyl had been introduced at position 6 and a compound into which prenyl was deduced to have been introduced at position 8 or 3′ were detected | a compound into which prenyl had been introduced at position 6 and a compound into which prenyl was deduced to have been introduced at position 8 or 3′ were detected |
| COc1cc(O)c2c(c1)O[C@H](c1ccc(O)cc1)CC2=O [sakuranetin] | activity of transferring a prenyl group to all substrates was observed | – | – |
| O=C1c2c(O)cc(O)cc2O[C@H](c2ccc(O)c(O)c2)[C@H]1O [taxifolin] | activity of transferring a prenyl group to all substrates was observed | – | – |
